Data published in ChEMBL document CHEMBL4834434, “Discovery of Novel and Potent N-Methyl-d-aspartate Receptor Positive Allosteric Modulators with Antidepressant-like Activity in Rodent Models” (J Med Chem, 2021).
pEC50: −log10 of the molar value. Blank lines part the entries; values can stand above or below the molecule they belong to. Active and inactive are the calls of the source. The calls are words filed in the database; no cut-off is given here.

Columns and labels:
[1] = target: Glutamate NMDA receptor; GRIN1/GRIN2B (Homo sapiens) (UniProt Q05586+Q13224); experiment: Positive allosteric modulation of GluN1/GluN2B (unknown origin) expressed in HEK293 cells assessed as enhancement of current induced by […] and glycine at 30 uM by whole-cell patch clamp method; format: cell-based
Glutamate NMDA receptor [2] = experiment: Positive allosteric modulation of ICR mouse primary cortical neuron NMDA receptor assessed as potentiation of glycine-induced current in presence of 100 uM NMDA by whole-cell patch clamp method; format: tissue-based, Brain
Mus musculus [3] = experiment: Antidepressant activity in icv dosed C57BL/6N mouse assessed as decrease in immobility time measured after 36 mins; format: functional, organism-based
[4] = Brain to blood partition coefficient of the compound; format: physicochemical, tissue-based; conditions: read-out: logBB (converted)
[5] = target: T1, Glutamate NMDA receptor (Mus musculus) (UniProt P35436+Q91ZU9+Q03391+P35438+Q01097+Q01098+A2AIR5); experiment: Positive allosteric modulation of C57BL/6 mouse NMDA receptor assessed as potentiation of NMDA-induced current by measuring peak current amplitude at 30 uM measured after 15 to 30 mins by patch-clamp method (reference value: 54.6 +/- 4.6 pA); format: tissue-based; conditions: Brain, filed as positive allosteric modulator, time 15-30 min
[6] = target: T2, Glutamate NMDA receptor; GRIN1/GRIN2A (Homo sapiens) (UniProt Q05586+Q12879); experiment: Positive allosteric modulation of GluN1/GluN2A (unknown origin) expressed in HEK293 cells assessed as enhancement of current induced by […] and glycine at 30 uM by whole-cell patch clamp method; format: cell-based; conditions: filed as positive allosteric modulator
[7] = target: T1, Glutamate NMDA receptor (Mus musculus); experiment: Positive allosteric modulation of C57BL/6 mouse NMDA receptor assessed as fold change in compound potentiated NMDA-induced current relative to NMDA current alone at 30 uM measured after 15 to 30 mins by patch-clamp method; format: tissue-based; conditions: Brain, filed as positive allosteric modulator, time 15-30 min
[8] = target: T1, Glutamate NMDA receptor (Mus musculus); experiment: Positive allosteric modulation of ICR mouse primary cortical neuron NMDA receptor assessed as potentiation of NMDA-induced maximum current by whole-cell patch clamp method; format: tissue-based; conditions: Brain
[9] = target: Ionotropic glutamate receptor NMDA 1/2C (Homo sapiens) (UniProt Q05586+Q14957); experiment: Positive allosteric modulation of GluN1/GluN2C (unknown origin) expressed in HEK293 cells assessed as enhancement of current induced by […] and glycine at 30 uM by whole-cell patch clamp method; format: cell-based
Glutamate NMDA receptor [10] = experiment: Positive allosteric modulation of C57BL/6 mouse NMDA receptor assessed as potentiation of NMDA-induced current in presence of saturating glutamate by patch-clamp method; format: tissue-based, Brain
[11] = target: T1, Glutamate NMDA receptor (Mus musculus); experiment: Positive allosteric modulation of ICR mouse primary cortical neuron NMDA receptor assessed as potentiation of NMDA-induced current at 10 uM in presence of 30 uM exogenous glycine by whole-cell patch clamp method; format: tissue-based; conditions: Brain
[12] = target: T1, Glutamate NMDA receptor (Mus musculus); experiment: Positive allosteric modulation of ICR mouse primary cortical neuron NMDA receptor assessed as potentiation of NMDA-induced current at 10 uM in absence of exogenous glycine/D-serine by whole-cell patch clamp method; format: tissue-based
Neuron [13] = experiment: Effect on AMPA receptor in ICR mouse hippocampal neuron assessed as increase in AMPA-induced current at 30 uM; format: tissue-based
[14] = target: T1, Glutamate NMDA receptor (Mus musculus); experiment: Positive allosteric modulation of C57BL/6 mouse NMDA receptor assessed as fold change in compound potentiated NMDA-induced current relative to NMDA current alone in presence of saturating glutamate by patch-clamp method; format: tissue-based; conditions: Brain, filed as positive allosteric modulator
Neuron [15] = experiment: Effect on GABA receptor in ICR mouse hippocampal neuron assessed as increase in GABA-induced current at 30 uM; format: tissue-based
Glutamate NMDA receptor [16] = experiment: Positive allosteric modulation of ICR mouse primary cortical neuron NMDA receptor assessed as potentiation of NMDA-induced current in presence of 30 uM exogenous glycine by whole-cell patch clamp method (reference value: 23.9 +/- 1.3 uM); format: tissue-based, Brain
Mus musculus [17] = experiment: Antidepressant activity in icv dosed CSDS-induced C57BL/6N mouse model assessed as reversal of reduction in CSDS-induced social interaction administered for 10 days by social interaction test; format: functional, organism-based; conditions: time 10.0 day
[18] = target: T2, Glutamate NMDA receptor; GRIN1/GRIN2A (Homo sapiens); experiment: Effect on GluN1/GluN2A (unknown origin) expressed in HEK293 cells assessed as enhancement of NMDA-induced current at 30 uM by whole-cell patch clamp method; format: cell-based
[19] = target: Ionotropic glutamate receptor NMDA 1/2D (Homo sapiens) (UniProt Q05586+O15399); experiment: Negative allosteric modulation of GluN1/GluN2D (unknown origin) expressed in HEK293 cells assessed as inhibition of current induced by […] and glycine at 30 uM by whole-cell patch clamp method; format: cell-based; conditions: filed as negative allosteric modulator
[20] = target: T2, Glutamate NMDA receptor; GRIN1/GRIN2A (Homo sapiens); experiment: Effect on GluN1/GluN2A (unknown origin) expressed in HEK293 cells assessed as enhancement of glycine-induced current at 30 uM by whole-cell patch clamp method; format: cell-based
[21] = Effect on locomotor activity in ICR mouse assessed as hyperlocomotion at 10 mg/kg, ip measured after 90 mins; format: ADME, organism-based; conditions: in vivo, 1.5 h
[22] = Cytotoxicity against African green monkey Vero cells assessed as cell growth inhibition at 60 uM measured after 48 hrs by CCK8 assay relative to control; format: cell-based; conditions: chlorocebus sabaeus
hERG (KCNH2) [23] = target: T3, hERG (KCNH2) (Homo sapiens, UniProt Q12809); experiment: Inhibition of human ERG expressed in CHO cells at 30 uM with holding potential at -80 to -60 mV for 500s followed by raise in potential at +30 mV for 2 sec and subsequent repolarization to -60 mV for 2 sec by whole-cell patch clamp method relative to control; format: cell-based; conditions: CHO cells expressing human ERG
hERG (KCNH2) [24] = target: T3, hERG (KCNH2); experiment: Inhibition of human ERG expressed in CHO cells at 100 uM with holding potential at -80 to -60 mV for 500s followed by raise in potential at +30 mV for 2 sec and subsequent repolarization to -60 mV for 2 sec by whole-cell patch clamp method relative to control; format: cell-based; conditions: CHO cells expressing human ERG
Mus musculus [25] = experiment: Antidepressant activity in ICR mouse assessed as decrease in immobility time at 30 mg/kg, ip measured after 26 mins by forced swim test; format: functional, organism-based
[26] = Cytotoxicity against human HEK293 cells assessed as cell growth inhibition at 60 uM measured after 48 hrs by CCK8 assay relative to control; format: cell-based
[27] = Cytotoxicity against mouse L929 cells assessed as cell growth inhibition at 60 uM measured after 48 hrs by CCK8 assay relative to control; format: cell-based
Mus musculus [28] = experiment: Antidepressant activity in ICR mouse assessed as decrease in immobility time at 3 to 10 mg/kg, ip measured after 26 mins by forced swim test; format: functional, organism-based; conditions: dose 3-10 mg/kg
[29] = Cytotoxicity against African green monkey Vero cells assessed as cell growth inhibition at 120 uM measured after 48 hrs by CCK8 assay relative to control; format: cell-based; conditions: chlorocebus sabaeus
[30] = Effect on locomotor activity in ICR mouse assessed as hypolocomotion at 10 mg/kg, ip measured after 90 mins; format: ADME, organism-based; conditions: in vivo, 1.5 h
[31] = Cytotoxicity against mouse L929 cells assessed as cell growth inhibition at 120 uM measured after 48 hrs by CCK8 assay relative to control; format: cell-based
[32] = Cytotoxicity against human HEK293 cells assessed as cell growth inhibition at 120 uM measured after 48 hrs by CCK8 assay relative to control; format: cell-based
Mus musculus [33] = experiment: Antidepressant activity in ICR mouse aassessed as inhibition of apomorphine-induced climbing behaviour at 10 mg/kg, ip administered prior to APO challenge and measured after 30 mins; format: functional, organism-based

T3 sequence (Q12809 whole entry): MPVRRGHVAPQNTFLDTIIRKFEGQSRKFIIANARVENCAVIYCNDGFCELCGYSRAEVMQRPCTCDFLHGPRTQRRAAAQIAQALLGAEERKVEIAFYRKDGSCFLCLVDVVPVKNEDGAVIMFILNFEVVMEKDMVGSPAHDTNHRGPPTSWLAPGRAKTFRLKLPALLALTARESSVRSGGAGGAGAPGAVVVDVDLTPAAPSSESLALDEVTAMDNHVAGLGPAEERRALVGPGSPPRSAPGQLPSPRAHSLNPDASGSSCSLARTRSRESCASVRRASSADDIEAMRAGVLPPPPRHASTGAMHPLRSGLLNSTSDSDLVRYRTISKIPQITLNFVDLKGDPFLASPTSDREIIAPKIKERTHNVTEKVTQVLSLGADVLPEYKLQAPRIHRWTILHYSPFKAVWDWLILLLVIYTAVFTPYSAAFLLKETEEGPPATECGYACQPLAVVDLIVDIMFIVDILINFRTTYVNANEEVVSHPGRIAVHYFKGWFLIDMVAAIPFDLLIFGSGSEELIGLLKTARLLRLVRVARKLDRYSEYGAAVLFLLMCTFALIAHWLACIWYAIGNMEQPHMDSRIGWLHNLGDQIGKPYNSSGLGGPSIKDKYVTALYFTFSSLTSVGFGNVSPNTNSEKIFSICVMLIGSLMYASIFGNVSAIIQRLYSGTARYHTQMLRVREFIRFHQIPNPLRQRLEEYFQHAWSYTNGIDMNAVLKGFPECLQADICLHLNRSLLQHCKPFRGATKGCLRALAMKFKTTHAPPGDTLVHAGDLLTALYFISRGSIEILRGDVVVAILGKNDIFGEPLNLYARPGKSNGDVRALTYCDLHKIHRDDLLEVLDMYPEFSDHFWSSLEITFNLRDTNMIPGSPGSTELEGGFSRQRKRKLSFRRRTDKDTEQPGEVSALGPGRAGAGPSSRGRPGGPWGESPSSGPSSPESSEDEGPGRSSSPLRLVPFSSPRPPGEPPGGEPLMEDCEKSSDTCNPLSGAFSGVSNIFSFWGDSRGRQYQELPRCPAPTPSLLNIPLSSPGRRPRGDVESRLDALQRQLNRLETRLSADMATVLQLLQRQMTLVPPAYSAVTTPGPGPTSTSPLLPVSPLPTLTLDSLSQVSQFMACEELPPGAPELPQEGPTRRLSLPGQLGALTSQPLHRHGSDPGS

Activity [1]: inactive
pEC50 (Glutamate NMDA receptor [2]): 4.93
Kp [4]: 0.661
Activity [5]: 1180 pA
Activity [6]: Active
fold change (FC) [7]: 32
Activity [8]: inactive
Activity [9]: inactive
pEC50 (Glutamate NMDA receptor [10]): 5.06
Activity [11]: inactive
Activity [12]: inactive
Activity (Neuron [13]): inactive
fold change (FC) [14]: 3.8
Activity (Neuron [15]): inactive
pEC50 (Glutamate NMDA receptor [16]): 4.87
Activity [18]: inactive
Activity [19]: Active
Activity [20]: inactive
SMILES: Cc1cc(C)n(Cc2ccc(C(=O)Nc3ccc(Br)cc3C)o2)n1
Activity (Mus musculus [3]): Active
Activity (Mus musculus [17]): Active

Kp [4]: 0.794
fold change (FC) [7]: 10.1
pEC50 (Glutamate NMDA receptor [10]): 5.11
fold change (FC) [14]: 10.2
SMILES: Cc1cc(C)n(Cc2ccc(C(=O)Nc3ccc(F)cc3C)s2)n1
Activity [21]: Non-Toxic
inhibition at 48 h, 60 µM [22]: -1.5%
inhibition at 2 s, 30 µM (hERG (KCNH2) [23]): 33.4%
inhibition at 2 s, 100 µM (hERG (KCNH2) [24]): 47.6%
Activity (Mus musculus [25]): Active
inhibition at 48 h, 60 µM [26]: 16.3%
inhibition at 48 h, 60 µM [27]: 11.5%
Activity (Mus musculus [28]): inactive
inhibition at 48 h, 120 µM [29]: 8.7%
Activity [30]: Non-Toxic
inhibition at 48 h, 120 µM [31]: 23.9%
inhibition at 48 h, 120 µM [32]: 34.4%
Activity (Mus musculus [33]): inactive

Kp [4]: 0.0776
Activity [5]: 1320 pA
fold change (FC) [7]: 3.5
SMILES: O=C(Nc1ccc(Cl)cc1C(=O)NCCCCO)c1ccco1
